Key:
[1] = system: carrageenin-induced edema; assay: Carrageenin-induced edema (antiinflammatory) assay, rat hind paw; type: in vivo, rat (Long Evans strain, male); settings: for inhibition in vivo at 200 mg/kg: 200 mg/kg oral; for ED50: 3 h, oral, dose which reduced edema formation by about 25% or more vs. mean control response in 50% of the animals
Protocol: The procedure employed is a modification of the method of Winter et al., Proc. Soc. Exptl. Biol. Med., 111:544 (1962). The device used for measurement of the paw volume is an adaptation of the water displacement procedure described by Adamkiewicz et al., Can. J. Biochem. Physiol., 33:332 (1955). Test compounds were administered orally, one hour prior to the intraplanter injection of 0.05 mL. of sterile 1.0% solution of carrageenin into the left hind paw of male rats (Long Evans strain) weighing between about 130-200 g. At peak swelling time (3 hrs.) the volume of edema was calculated by differential paw volumes.
Selected compounds of the invention were further tested to determine their ED50 values. The ED50 value is defined as that dose which reduced edema formation by about 25% or more compared with the mean control response (parallel run) in 50% of the animals. Typical results of these tests appear in Table II.

[2] = system: phenylquinone writhing; assay: Phenylquinone writhing test (analgesic assay); type: in vivo, mouse (Carworth CF1, male); settings: for Phenylquinone Writhing Assay (% Control), percent analgesia, 15 min.: 15 min. after administration; for Phenylquinone Writhing Assay (% Control), percent analgesia, 30 min.: 30 min. after administration; for Phenylquinone Writhing Assay (% Control), percent analgesia, 60 min.: 60 min. after administration
Protocol: Phenylquinone writhing test was employed to evaluate analgesic activity for selected compounds for the present invention according to the following procedure:
Phenylquinone (phenyl-p-benzoquinone, No. 7104, Eastman Organic Chemicals) is made up as a 0.02% aqueous solution and 5% ethyl alcohol. Phenylquinone solutions are made up fresh twice daily. Standard reference agents and the test compounds are dissolved or suspended in a 0.25% methylcellulose solution. A control group consisting of 10 mice (Carworth CF1 male mice) are administered the 0.02% phenylquinone solution at a dose of 0.25 mL./mouse. The mice are housed individually and observed closely for 10 min. for exhibition of writhing. The onset of writhing occurs within 3 min. and 100% of the mice must writh within 10 min. Test compounds are administered orally to groups of 10 mice. The volume given is 0.01 mL. per gram of body weight. Activity can be studied at 15, 30, 60 and 120 min. after oral administration. After the designated time interval of a dose group has elapsed, the mice are challenged with phenylquinone intraperitoneally. Complete blocking of the writhing syndrome for the 10-min. observation period in any one mouse is considered a positive analgesic response for that mouse. Conversely, if any mouse wriths definitely once, it is considered not to be protected. The number of mice not writhing in a group multiplied by 10 equals percent analgesia for that dose at the time interval.

[3] = Rattus norvegicus, 1 hour before carrageenin, edema at peak swelling time (3 hrs.), read-out: % Reduction of Edema

Oc1nnc2nc(-c3ccccc3)cnn12 [Example 3, 1,2,4-triazolo[4,3-b]-1,2,4-triazine, 3-hydroxy-7-phenyl]
inhibition in vivo at 200 mg/kg [1, 3]: 22%

CCc1nnc2nc(-c3ccccc3)cnn12 [Example 5, 1,2,4-triazolo[4,3-b]-1,2,4-triazine, 3-ethyl-7-phenyl]
Phenylquinone Writhing Assay (% Control), percent analgesia, 15 min. ([2]; 100 mg/kg oral): 30% | Phenylquinone Writhing Assay (% Control), percent analgesia, 30 min. ([2]; 100 mg/kg oral): 30% | Phenylquinone Writhing Assay (% Control), percent analgesia, 60 min. ([2]; 100 mg/kg oral): 70% | ED50 ([1]; Rattus norvegicus): 100 mg/kg | inhibition in vivo at 200 mg/kg [1, 3]: 40%

COCc1nnc2nc(-c3ccccc3)cnn12 [Example 2, 1,2,4-triazolo[4,3-b]-1,2,4-triazine, 3-methoxymethyl-7-phenyl]
inhibition in vivo at 200 mg/kg [1, 3]: 26%

Cc1nnc2nc(-c3ccccc3Cl)cnn12 [Example 26, 1,2,4-triazolo[4,3-b]-1,2,4-triazine, 3-methyl-7-(2'-chlorophenyl)]
inhibition in vivo at 200 mg/kg [1, 3]: 56%

Clc1ccc(-c2cnn3cnnc3n2)cc1 [Example 10, 1,2,4-triazolo[4,3-b]-1,2,4-triazine, 7-(4'-chlorophenyl)]
ED50 ([1]; Rattus norvegicus): 10 mg/kg | inhibition in vivo at 200 mg/kg [1, 3]: 27%

CC(C)c1nnc2nc(-c3ccccc3)cnn12 [Example 4, 1,2,4-triazolo[4,3-b]-1,2,4-triazine, 3-isopropyl-7-phenyl]
Phenylquinone Writhing Assay (% Control), percent analgesia, 15 min. ([2]; 100 mg/kg oral): 10% | Phenylquinone Writhing Assay (% Control), percent analgesia, 30 min. ([2]; 100 mg/kg oral): 20% | Phenylquinone Writhing Assay (% Control), percent analgesia, 60 min. ([2]; 100 mg/kg oral): 20% | inhibition in vivo at 200 mg/kg [1, 3]: 18%

Cc1nnc2nc(-c3cccc(Cl)c3)cnn12 [Example 1, 1,2,4-triazolo[4,3-b]-1,2,4-triazine, 3-methyl-7-(3-chlorophenyl)]
ED50 ([1]; Rattus norvegicus): 30 mg/kg | inhibition in vivo at 200 mg/kg [1, 3]: 39%

c1ccc(-c2cnn3cnnc3n2)cc1 [Example 13, 1,2,4-triazolo[4,3-b]-1,2,4-triazine, 7-phenyl]
Phenylquinone Writhing Assay (% Control), percent analgesia, 15 min. ([2]; 50 mg/kg oral): 20% | Phenylquinone Writhing Assay (% Control), percent analgesia, 30 min. ([2]; 50 mg/kg oral): 20% | inhibition in vivo at 175 mg/kg ([1]; Rattus norvegicus, 175 mg/kg oral, 1 hour before carrageenin, edema at peak swelling time (3 hrs.), read-out: % Reduction of Edema): 82%

Clc1cccc(-c2cnn3cnnc3n2)c1 [Example 28, 1,2,4-triazolo[4,3-b]-1,2,4-triazine, 7-(3'-chlorophenyl)]
inhibition in vivo at 200 mg/kg [1, 3]: 21%

FC(F)(F)c1nnc2nc(-c3ccccc3)cnn12 [Example 15, 1,2,4-triazolo[4,3-b]-1,2,4-triazine, 3-trifluoromethyl-7-phenyl]
inhibition in vivo at 200 mg/kg [1, 3]: 30%

Clc1ccccc1-c1cnn2cnnc2n1 [Example 36, 1,2,4-triazolo[4,3-b]-1,2,4-triazine, 7-(2'-chlorophenyl)]
inhibition in vivo at 200 mg/kg [1, 3]: 65%

Cc1nnc2nc(-c3ccccc3)c(-c3ccccc3)nn12 [Example 9, 1,2,4-triazolo[4,3-b]-1,2,4-triazine, 3-methyl-6,7-diphenyl]
inhibition in vivo at 200 mg/kg [1, 3]: 35%

COCc1nnc2nc(-c3ccc(C)cc3)cnn12 [Example 8, 1,2,4-triazolo[4,3-b]-1,2,4-triazine, 3-methoxymethyl-7-(4'-methylphenyl)]
% Reduction of Edema ([1]; 100 mg/kg oral, 1 hour before carrageenin, edema at peak swelling time (3 hrs.)): 16%

Clc1ccc(-c2cnn3cnnc3n2)cc1Cl [Example 7, 1,2,4-triazolo[4,3-b]-1,2,4-triazine, 7-(3',4'-dichlorophenyl)]
Phenylquinone Writhing Assay (% Control), percent analgesia, 15 min. ([2]; 100 mg/kg oral): 30% | Phenylquinone Writhing Assay (% Control), percent analgesia, 30 min. ([2]; 100 mg/kg oral): 50% | Phenylquinone Writhing Assay (% Control), percent analgesia, 60 min. ([2]; 100 mg/kg oral): 30% | ED50 ([1]; Rattus norvegicus): 1 mg/kg | inhibition in vivo at 200 mg/kg [1, 3]: 36%

Cc1nnc2nc(-c3ccccc3)cnn12 [Example 12, 1,2,4-triazolo[4,3-b]-1,2,4-triazine, 3-methyl-7-phenyl]
inhibition in vivo at 200 mg/kg [1, 3]: 70%

c1ccc(-c2nc3nncn3nc2-c2ccccc2)cc1 [Example 22, 1,2,4-triazolo[4,3-b]-1,2,4-triazine, 6,7-diphenyl]
inhibition in vivo at 200 mg/kg [1, 3]: 32%

CC(C)c1nnc2nc(-c3ccccc3)c(-c3ccccc3)nn12 [Example 23, 1,2,4-triazolo[4,3-b]-1,2,4-triazine, 3-isopropyl-5,6-diphenyl]
ED50 ([1]; Rattus norvegicus): 30 mg/kg | inhibition in vivo at 200 mg/kg [1, 3]: 37%

CC(C)c1nnc2nc(-c3ccc(Cl)c(Cl)c3)cnn12 [Example 6, 1,2,4-triazolo[4,3-b]-1,2,4-triazine, 3-isopropyl-7-(3',4'-dichlorophenyl)]
inhibition in vivo at 200 mg/kg [1, 3]: 33%

Cc1nc2nnc(C)n2nc1C [Example 25, 1,2,4-triazolo[4,3-b]-1,2,4-triazine, 3,6,7-trimethyl]
inhibition in vivo at 200 mg/kg [1, 3]: 49%
